Measurements as given in US9511120B2, “Use of the angiotensin-(1-9) peptide or derivatives thereof, use of vectors overexpressing the ACE2 enzyme that produces angiotensin-(1-9) for preparing medicaments useful for preventing, reverting, inhibiting and/or reducing hypertension and/or inducing vasodilation” (PONTIFICA UNIVERSIDAD CATÓLICA DE CHILE, priority 2012, dated 2016).

Columns and labels:
angiotensin-(1-9) = settings: administration of the drug; cited from earlier work
[1] = system: hypertensive rats by administration of angiotensin II; assay: Hypertension induced by angiotensin II infusion: body mass, cardiac mass, systolic blood pressure; type: in vivo, rat
Experimental: (§1) Rats were subjected to the model of angiotensin II infusion (Grobe et al.: Am. J. Physiol. 292: H736-42, 2007). The animals were separated randomly into the following experimental groups: controls (Sham or pseudo-operated), infused with angiotensin II (300 ng/kg min), infused with angiotensin II and angiotensin-(1-9) (300 ng/kg min and 602 ng/kg min, respectively), and then infused with angiotensin II, angiotensin-(1-9) and the angiotensin-(1-7) receptor antagonist, A779 (300 ng/kg min, 602 ng/kg min, and 100 ng/kg min, respectively). In all cases the pumps operated at a flow of 0.5 μL/h and were implanted in the right jugular vein through a catheter fitted in an intrascapular subcutaneous pocket under anesthesia with ketamine HCl/xylazine (35 and 7 mg/kg i.p., respectively), for a period of 14 days.
Systolic blood pressure (SBP) was measured by the tail plethysmographic method in the animals. To such end, rats were lightly anesthetized with ethyl ether. The measurement was performed once a week by researchers blind to the treatment (Ocaranza et al. J. Hypertens. 20:413-20, 2002).
The degree of cardiac hypertrophy (CH) was measured by the ratio of the cardiac mass (CM), the body mass (BM) and relative cardiac mass (RCM; [CM/BM]*100) (Ocaranza et al., J. Hypertens. 28:1054-1064, 2010).
Four experimental groups of rats were established as described in Example 1. Group 1 corresponds to rats which were infused with saline (Sham). Group 2 corresponds to rats which were infused with only angiotensin II. Group 3 correspond to rats which were co-infused with angiotensin II and angiotensin-(1-9). And Group 4 corresponds to rats which were co-infused with angiotensin II, angiotensin-(1-9) and A779.

[2] = system: thoracic aortas of hypertensive rats by angiotensin II infusion; assay: Angiotensin II infusion model: aortic hypertrophy by morphometry; type: in vivo, rat; settings: thoracic aorta, 14 days infusion
Experimental: as §1
Aortic hypertrophy was determined by morphometry. Sections of the descending aorta of 5 μm thick, which were previously fixed in Bouin (1.3% picric acid, 9.5% formaldehyde and 4.8% acetic acid) for 24 hours, embedded in paraffin and stained with hematoxylin-eosin, were used, to be examined later in a light microscope as described by Igase et al. (Am. J. Physiol. 289:H1013-9, 2005). Briefly, images of the aortas were captured by a video camera (Nikon) fixed to a microscope (Nikon), and projected on a monitor; using the software Nis-Element. Lumen areas (LA) and total areas (TA) were calculated and recorded. The tunica media area (TMA) was obtained from the difference between the TA and LA of the aorta. The tunica media thickness (TMT) was defined as the region delimited by the external elastic lamina (EEL) and internal elastic lamina (IEL).

[3] = system: cardiomyocyte hypertrophy induced by Ang II in vivo; assay: Angiotensin II infusion model: cardiomyocyte hypertrophy (area and perimeter); parameters: species or system rat; settings: two weeks
Experimental: as §1
The middle portion of the left ventricle (LV) was dehydrated at room temperature for 24 h in Bouin and then embedded in paraffin. Sections of 10-15 μm thick were taken and stained with hematoxylin-eosin, to be examined later in a light microscope in order to observe their general morphological characteristics. Cardiomyocyte size was determined according to Nakamura et al. (Circulation, 98:794-9, 1998). Briefly, images of the cells were captured using a Nikon DS Fi1 camera and projected on a monitor using a software program. The cardiomyocyte area and perimeter were measured and recorded, using the Nis-Element program (Ocaranza et al. J. Hypertens., 28:1054-64, 2010). All measurements were performed by a blinded observer, and at least 80 images of cells per animal, which were randomly selected, were analyzed.

TGF-β mRNA = assay: Angiotensin II infusion model: TGF-β mRNA levels in the aortic wall; type: in vivo, rat; settings: normalized to 18S rRNA
Experimental: as §1
(§2) The procedure described by Ocaranza et al. (Hypertension 48:572-8, 2006) was followed. Briefly, total RNA was isolated from the aorta using the trizol method and quantified by spectroscopy at 260 nm/280 nm. The cDNA was obtained by reverse transcription from 1.5 μg of total RNA treated with DNAse. […] The band intensity was quantified by densitometry and normalized to the 18S ribosomal RNA band.

MCP-1 mRNA = assay: Angiotensin II infusion model: MCP-1 mRNA levels in the aortic wall; type: in vivo, rat
Experimental: as §1, §2

collagen I = assay: Angiotensin II infusion model: collagen I protein levels in the aortic wall by Western blot; type: in vivo, rat; settings: aortic wall
Experimental: as §1
For the determination of collagen I and TGFβ-1, 30 μg and 50 μg of total proteins were used, respectively, diluted in SDS reducing buffer (50 mM tris-HCl, pH 7.4, NP-40 10%, NaCl 1M, Na deoxycholate 5%, EDTA 10 mg/mL, SDS 10%, aprotinin 1 mg/mL, leupeptin 0.1 mg/mL, PMSF 10 mM), they were then separated by SDS-PAGE gel electrophoresis 7%, and transferred to nitrocellulose membranes of […] to 300 mA for 1 h. The transfer of proteins was monitored by Ponceau red staining. […]

rat mesenteric arteries = assay: Contractility studies in perfused, pressurized mesenteric arteries; settings: co-incubated with angiotensin-(1-9)
Experimental: The change in diameter of rat resistance (mesenteric) arteries was determined, they were then perfused and pressurized under physiological conditions, in response to different substances, according to a methodology previously described (Gonzalez et al. Hypertension 45:853-9, 2005). Briefly, male rats (Sprague Dawley, 150-200 g) were euthanized for dissection of mesenteric vascular territory, avoiding direct manipulation of arterial or venous tissue. Mesenteric small arteries (200-300 micrometers) were isolated, surgically eliminating adventitial tissue under a zoom stereo microscope (Olympus SZ61). The arteries were perfused intraluminally into a thermoregulated bath at controlled pressure and flow, with perfusion solution (modified Krebs, KRB) of the following composition, in mmol/L: NaCl, 130; CaCl2, 2.5; NaHCO3, 25; MgSO4, 1.2; NaH2PO4, 1.2; KCl, 4.7; glucose, 5.5, pH 7.4. Before use, KRB was gassed with a mixture of 95% O2 and 5% CO2. For perfusion, the artery was cannulated with a glass micropipette (outer diameter 164μ), secured with 5-0 silk suture. The arteries were perfused with 10-20 μL/min KRB, so as to achieve transmural pressure of 60 mmHg. After a rest period of 20 minutes, each artery was incubated in the presence of a vasoconstrictor (100 μM phenylephrine) for two minutes and an endothelial NO production agonist (1 μM acetylcholine). […]

Compound: CCOC(=O)[C@H](CCc1ccccc1)N[C@@H](C)C(=O)N1CCC[C@H]1C(=O)O [enalapril]
- plasma and/or tissue levels of angiotensin-(1-9) (angiotensin-(1-9)): increase

Compound: Asp-Arg-Val-Tyr-Ile-His-Pro-Phe [angiotensin II, infused to induce hypertension in the model, reference compound]
- SBP 1st week ([1]; 1st week of infusion): 130 ± 4 mmHg
- SBP 2nd week ([1]; 2nd week of infusion): 154 ± 10 mmHg
- Initial SBP ([1]; baseline, tail plethysmography): 121 ± 9 mmHg
- CM ([1]; rats, infusion for 14 days): 899 ± 28 mg
- RCM (MV/MC) ([1]; rats, infusion for 14 days): 348 ± 18
- ratio of tunica media area (TMA) to LA [2]: increase
- thickness of the tunica media (TMT) [2]: increased significantly
- vascular lumen area (LA) [2]: no change
- cardiomyocyte cell area ([3]; left ventricle): 282±2 μm^2
- cardiomyocyte perimeter ([3]; left ventricle): 66.2±0.3 μm
- increase in cell area as compared to the Sham control group [3]: 37%
- increase in perimeter as compared to the Sham control group [3]: 18%
- increase of TGF-β mRNA in relation to Sham control (TGF-β mRNA): 12.8 times
- MCP-1 mRNA levels (MCP-1 mRNA): no differences
- increase of collagen I as compared to the Sham control group (collagen I): 4.5 times

Compound: COC(=O)[C@@H](N)CCCNC(=N)N[N+](=O)[O-] [L-NAME, reference compound]
- effect of nitric oxide synthase inhibitor on the vasodilator effect of angiotensin-(1-9) (rat mesenteric arteries): decreased the vasodilator effect
